Tested on: myosin heavy chain (MHC) protein in C2C12 myotubes
Test: Muscle cell assay: oxidative modification of myosin heavy chain protein after electrical pulse stimulation (OXYBLOT)
Format: cell-based, Mouse
Experimental: Mouse C2C12 myoblasts were purchased from American Type Culture Collection (ATCC; Manassas, Va.) and grown to 90% confluence in high glucose Dubecco's Modified Eagle media (DMEM) with 10% fetal bovine serum (FBS). Myoblasts from the purchased lot were grown in T75 flasks and passaged >5 times prior to plating in collagen coated six-well plates for experimentation. To induce myotube differentiation FBS was replaced with 2% horse serum for 5 days. Myoblasts were grown and myotubes were maintained without antibiotics in a 37° C., 5% CO2 incubator. Western blot analysis for myosin heavy chain (MHC) protein indicated expression by day five with maintenance of steady state protein levels through day eight of differentiation. Electrical pulsing was applied to the myotubes using a C-Pace EP Cell Culture Stimulator (IonOptix; Milton, Mass.). Cells were stimulated to visibly and repetitively contract for 90 minutes at a pulse frequency of 0.5 Hz and a pulse duration of 24 ms. Immediately prior to stimulation, day old media was removed and replaced with 5 ml of fresh differentiation media. Myotubes were lysed and proteins were derivatized to 2,4-dinitrophenylhydrazone (DNP; OXYBLOT method). […] Protein bands were visualized and quantified with a Bio-Rad Chemidoc XRS system. […]

Cc1c(C)c2c(c(C)c1O)CCC(C)(C(=O)O)O2 (centres unmarked) [TROLOX, 6-hydroxy-2,5,7,8-tetramethylchroman-2-carboxylic acid]
Oxidative modification of MHC protein reduced (% of EPS alone) (1 mM TROLOX pre-treatment approx. 18 h prior and again immediately before EPS, 90 min EPS at 0.5 Hz, 24 ms, five independent experiments, FIG. 4): 42±15% | Oxidative modification of myosin heavy chain protein compared to electrical pulse stimulation alone (FIG. 4) (incubated with 1 mM TROLOX and subjected to electrical pulse stimulation): reduced oxidative modification

Reference: patent publication US20110263697A1, “Methods of Reducing Oxidative Modification of a Muscle Cell Protein” (STOKELY-VAN CAMP, INC., priority 2010, published 2011)
